In US5849695A, “Parathyroid hormone analogues useful for treatment of osteoporosis and disorders of calcium meatabolism in mammals” (The Regents of the University of California, priority 1993, dated 1998):
Read-outs that look alike come from different tables or passages of the source. One block for each compound: values may come before it.

Columns and labels:
PTH receptor [1] = molecular target: T1, PTH receptor (Homo sapiens, UniProt Q03431)
T1 sequence (Q03431 27-593): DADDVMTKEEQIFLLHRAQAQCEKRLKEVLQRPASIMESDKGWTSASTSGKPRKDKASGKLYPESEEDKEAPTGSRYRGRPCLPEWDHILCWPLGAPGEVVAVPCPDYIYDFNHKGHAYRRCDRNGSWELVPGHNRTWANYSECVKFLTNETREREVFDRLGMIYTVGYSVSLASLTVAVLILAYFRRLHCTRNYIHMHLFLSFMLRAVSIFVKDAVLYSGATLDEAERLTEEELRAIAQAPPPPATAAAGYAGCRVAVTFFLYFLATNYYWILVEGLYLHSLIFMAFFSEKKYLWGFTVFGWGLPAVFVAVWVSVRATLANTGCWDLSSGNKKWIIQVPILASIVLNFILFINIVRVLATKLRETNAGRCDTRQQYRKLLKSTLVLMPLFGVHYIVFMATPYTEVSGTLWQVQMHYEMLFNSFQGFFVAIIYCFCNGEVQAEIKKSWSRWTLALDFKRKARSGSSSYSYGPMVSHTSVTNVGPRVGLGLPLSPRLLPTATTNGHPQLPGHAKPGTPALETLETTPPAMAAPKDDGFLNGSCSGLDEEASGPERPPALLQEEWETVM

PTH receptor [2] = molecular target: T2, PTH receptor (Rattus norvegicus, UniProt P25961); format: cell-based; conditions: for BONE CELLS Rat(UMR-106) Activity (AC): Table 5A, intact cells, hPTH(1-34) = 100
T2 construct: endogenous in cells; host or cells: UMR 106-H5 rat osteosarcoma cells
T2 sequence (P25961 27-591): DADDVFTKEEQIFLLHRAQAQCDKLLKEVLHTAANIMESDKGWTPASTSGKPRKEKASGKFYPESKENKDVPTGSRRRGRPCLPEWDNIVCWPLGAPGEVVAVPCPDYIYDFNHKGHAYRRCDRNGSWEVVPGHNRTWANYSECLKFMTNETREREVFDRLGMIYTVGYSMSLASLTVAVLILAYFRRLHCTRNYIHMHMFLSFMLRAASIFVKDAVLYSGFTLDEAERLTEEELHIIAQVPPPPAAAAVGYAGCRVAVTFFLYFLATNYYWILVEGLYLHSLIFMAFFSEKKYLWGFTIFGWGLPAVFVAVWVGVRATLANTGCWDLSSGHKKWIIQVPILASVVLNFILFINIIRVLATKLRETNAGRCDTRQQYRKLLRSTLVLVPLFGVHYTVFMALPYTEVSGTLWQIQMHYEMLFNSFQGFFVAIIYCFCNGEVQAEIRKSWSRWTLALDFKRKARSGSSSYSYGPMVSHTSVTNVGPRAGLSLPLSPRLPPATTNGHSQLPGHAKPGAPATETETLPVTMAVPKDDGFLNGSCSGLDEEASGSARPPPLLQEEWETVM
Experimental: (§1) Assays were conducted using UMR-160-H5 cells. These assays were performed as described in Cohen et al. (1991), J. Biological Chem., 266(3), 1997 and in the Experimental section, e.g. Example 11. Receptor binding assays were carried out in canine renal plasma membranes and in UMR 106-H5 rat osteosarcoma cells as previously described in detail (Ref. 14,32), using ^125 I-labeled PTH(1-34)amide as the radioligand. Binding potency (IC50) was quantified as the concentration of unlabeled peptide required for half-maximal displacement of the radioligand. […] Adenylate cyclase activity was assessed in canine renal membranes by the conversion of [α-32p ] ATP to [^32 P] cyclic AMP, essentially as described, except for the addition of 100 micromolar GTP (Ref. 33,34). Adenylate cyclase activity in UMR 106-H5 cells was assessed essentially as described (Ref. 35). In brief, cells were incubated with [3H]adenine 1 micro Ci/ml of serum-free MEM for two hours at 37° C. to label the endogenous ATP pool. Cells were then exposed to 0.4 mM IBMX for 10 min, followed by the appropriate peptide for an additional 10 min at ambient temperature. The cells are then scraped in 20% TCA, and [3H]cyclic AMP is isolated by the column procedure of Salomon et al. (Ref. 36). Potency in the adenylate cyclase assays (Ka) is the concentration of peptide producing half-maximal enzyme activation.

PTH receptor [3] = molecular target: T1, PTH receptor; format: cell-based; design: In intact rat (UMR-106) and human (SaOS-2) bone cell lines; endogenous in cells; host or cells: SaOS-2 human bone (osteosarcoma) cells
Text: The renal membrane assay values listed reflect the effect of the polypeptide analogue with kidney tissue receptors. The UMR-106-H5 assay values reflect the effect of the peptide analogue with rat bone tissue receptors. The Sa05-2 assay values reflect the effect of the peptides for human bone tissue receptors.

PTH receptor [4] = test system: PTH receptor
PTH receptor [5] = molecular target: T3, PTH receptor (Canis lupus familiaris, UniProt Q9TU31); format: binding, canine
T3 construct: canine renal plasma membranes; from tissue; host or cells: canine kidney (renal plasma membranes)
T3 sequence (Q9TU31 29-595): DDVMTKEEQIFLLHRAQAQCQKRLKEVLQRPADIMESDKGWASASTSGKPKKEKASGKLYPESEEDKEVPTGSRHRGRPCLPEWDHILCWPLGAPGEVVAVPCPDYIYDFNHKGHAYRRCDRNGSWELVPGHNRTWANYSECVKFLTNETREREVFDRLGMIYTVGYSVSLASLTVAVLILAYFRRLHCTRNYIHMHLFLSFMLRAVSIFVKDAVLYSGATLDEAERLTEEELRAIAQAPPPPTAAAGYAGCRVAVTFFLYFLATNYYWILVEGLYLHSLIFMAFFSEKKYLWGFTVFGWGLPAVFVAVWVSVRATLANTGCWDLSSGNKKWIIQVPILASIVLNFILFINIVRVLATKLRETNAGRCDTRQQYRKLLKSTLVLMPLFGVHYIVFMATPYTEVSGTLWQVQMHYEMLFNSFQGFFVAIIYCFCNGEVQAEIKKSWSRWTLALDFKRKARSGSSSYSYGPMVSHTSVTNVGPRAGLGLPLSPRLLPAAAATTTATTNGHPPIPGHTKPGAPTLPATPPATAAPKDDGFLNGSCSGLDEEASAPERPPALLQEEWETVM
Experimental: as §1, with “Receptor” for “Assays were conducted using UMR-160-H5 cells. These assays were performed as described in Cohen et al. (1991), J. Biological Chem., 266(3), 1997 and in the Experimental section, e.g. Example 11. Receptor”

PTH receptor [6] = molecular target: T3, PTH receptor; format: biochemical, canine; conditions: for RENAL MEMBRANES Canine Activity (AC): Table 5B, hPTH(1-34) = 100
Experimental: as §1, with “Receptor” for “Assays were conducted using UMR-160-H5 cells. These assays were performed as described in Cohen et al. (1991), J. Biological Chem., 266(3), 1997 and in the Experimental section, e.g. Example 11. Receptor”

PTH receptor [7] = molecular target: T2, PTH receptor; format: binding
Experimental: as §1, with “Receptor” for “Assays were conducted using UMR-160-H5 cells. These assays were performed as described in Cohen et al. (1991), J. Biological Chem., 266(3), 1997 and in the Experimental section, e.g. Example 11. Receptor”

[8] = cited from earlier work
[9] = Table 5A, intact cells, hPTH(1-34) = 100

BONE CELL MEMBRANES Human SaOS-2 Potency (AC) (PTH receptor [1]): 11%
BONE CELL MEMBRANES Human SaOS-2 Activity (AC) (PTH receptor [1]; Table 5B, hPTH(1-34) = 100): 14%
BONE CELLS Rat(UMR-106) Potency (AC) (PTH receptor [2]): 4%
BONE CELLS Rat(UMR-106) Activity (AC) (PTH receptor [2]): 100%
BONE CELLS Human(SaOS-2) Potency (AC) (PTH receptor [3]): 5%
BONE CELLS Human(SaOS-2) Activity (AC) (PTH receptor [3]; [9]): 100%
RENAL MEMBRANES Canine Potency (B) (PTH receptor [5]): 4%
RENAL MEMBRANES Canine Potency (AC) (PTH receptor [6]): 1%
RENAL MEMBRANES Canine Activity (AC) (PTH receptor [6]): 43%
BONE CELLS Rat(UMR-106) Potency (B) (PTH receptor [7]): 1%
Compound: CC[C@H](C)[C@H](NC(=O)[C@H](CCC(=O)O)NC(=O)[C@H](Cc1c[nH]cn1)NC(=O)[C@@H](NC(=O)[C@@H](N)CO)C(C)C)C(=O)N[C@@H](CCC(N)=O)C(=O)N[C@@H](CC(C)C)C(=O)N[C@@H](CCSC)C(=O)N[C@@H](Cc1c[nH]cn1)C(=O)N[C@@H](CC(N)=O)C(=O)N[C@@H](CC(C)C)C(=O)NCC(=O)N[C@@H](CCCCN)C(=O)N[C@@H](Cc1c[nH]cn1)C(=O)N[C@@H](CC(C)C)C(=O)N[C@@H](CC(N)=O)C(=O)N[C@@H](CO)C(=O)N[C@@H](CCSC)C(=O)N[C@@H](CCC(=O)O)C(=O)N[C@@H](CCCNC(=N)N)C(=O)N[C@H](C(=O)N[C@@H](CCC(=O)O)C(=O)N[C@@H](Cc1c[nH]c2ccccc12)C(=O)N[C@@H](CC(C)C)C(=O)N[C@@H](CCCNC(=N)N)C(=O)N[C@@H](CCCCN)C(=O)N[C@@H](CCCCN)C(=O)N[C@@H](CC(C)C)C(=O)N[C@@H](CCC(N)=O)C(=O)N[C@@H](CC(=O)O)C(=O)N[C@H](C(=O)N[C@@H](Cc1c[nH]cn1)C(=O)N[C@@H](CC(N)=O)C(=O)N[C@@H](Cc1ccccc1)C(=O)O)C(C)C)C(C)C [[his^3]hPTH(1-34), [his^3]HPTH(1-34)]
KIDNEY CELLS (CK) Potency (AC) (PTH receptor [4]): 13%
KIDNEY CELLS (CK) Potency (B) (PTH receptors): 6%
potency of native [ser^3]HPTH(1-34) retained in binding to PTH receptors (PTH receptors): 5-15%

Compound: [Gln^22, Lys^28, Leu^30 hPTH(1-34)
loss of biological activity ([8]; Ref. 49, 50): 10-50 fold

Compound: [SOMet^18 ]bPTH(1-84)
activity of the native hormone retained ([8]; Ref. 49): ~50%

Compound: CC[C@H](C)[C@H](NC(=O)[C@H](CCC(=O)O)NC(=O)[C@H](CO)NC(=O)[C@@H](NC(=O)[C@@H](N)CO)C(C)C)C(=O)N[C@@H](CCC(N)=O)C(=O)N[C@@H](CC(C)C)C(=O)N[C@@H](CCSC)C(=O)N[C@@H](Cc1c[nH]cn1)C(=O)N[C@@H](CC(N)=O)C(=O)N[C@@H](CC(C)C)C(=O)NCC(=O)N[C@@H](CCCCN)C(=O)N[C@@H](Cc1c[nH]cn1)C(=O)N[C@@H](CC(C)C)C(=O)N[C@@H](CC(N)=O)C(=O)N[C@@H](CO)C(=O)N[C@@H](CCSC)C(=O)N[C@@H](CCC(=O)O)C(=O)N[C@@H](CCCNC(=N)N)C(=O)N[C@H](C(=O)N[C@@H](CCC(=O)O)C(=O)N[C@@H](Cc1c[nH]c2ccccc12)C(=O)N[C@@H](CC(C)C)C(=O)N[C@@H](CCCNC(=N)N)C(=O)N[C@@H](CCCCN)C(=O)N[C@@H](CCCCN)C(=O)N[C@@H](CC(C)C)C(=O)N[C@@H](CCC(N)=O)C(=O)N[C@@H](CC(=O)O)C(=O)N[C@H](C(=O)N[C@@H](Cc1c[nH]cn1)C(=O)N[C@@H](CC(N)=O)C(=O)N[C@@H](Cc1ccccc1)C(=O)O)C(C)C)C(C)C [hPTH (1-34), hPTH(1-34), reference compound]
BONE CELLS Rat(UMR-106) Potency (AC) (PTH receptor [2]): 100%
UMR106-H5 CELLS Rat Bone Potency (AC) (PTH receptor [2]): 100%
UMR106-H5 CELLS Rat Bone Activity (AC*) (PTH receptor [2]; Table 1(A), relative to hPTH(1-34) = 100%): 100%
BONE CELLS Rat(UMR-106) Activity (AC) (PTH receptor [2]): 100%
KIDNEY CELLS (CK) Potency (AC) (PTH receptor [4]; [9]): 100%
RENAL MEMBRANES Canine Potency (B) (PTH receptor [5]): 100%
RENAL MEMBRANES Canine Potency (AC) (PTH receptor [6]): 100%
RENAL MEMBRANES Canine Activity (AC*) (PTH receptor [6]; Table 1(A), large doses, relative to hPTH(1-34) = 100%): 100%
RENAL MEMBRANES Canine Activity (AC) (PTH receptor [6]): 100%
KIDNEY CELLS (CK) Potency (B) (PTH receptors; [9]): 100%
BONE CELLS Rat(UMR-106) Potency (B) (PTH receptor [7]): 100%
UMR106-H5 CELLS Rat Bone Potency (B) (PTH receptor [7]): 100%
